This note sets out measurements from ChEMBL document CHEMBL5728262, “Oxadiazolones as transient receptor potential channel inhibitors” (2021).

Molecules are shown by their SMILES.

The assay concerns the target Transient receptor potential cation channel subfamily A member 1 (Homo sapiens, UniProt O75762). Put plainly: FLIPR Assay: The IC50 (effective concentration) of compounds on the human and rat TRPA1 channels were determined using a FLIPR Tetra instrument. CHO cells expressing TRPA1 were plated into 384-well plates, incubated overnight at 37° C., and loaded with BD calcium indicator dye for 1 hr at 37° C. followed by 15 minutes at room temperature. The assay buffer was Hank's Balanced Salt Solution (HBSS) containing 20 mM HEPES (pH readjusted to 7.4) along with 0.02% BSA.Following dye load and plate cool down, compounds were added to the cells using FLIPR Tetra. Plates were then incubated with compounds for 20 minutes at room temperature prior to adding agonist. […] Fixing the Hill coefficient will generally reduce variability of the IC50 determination. The IC50 results were individually examined to make sure the MIN and MAX points were set correctly prior to validation of the results.

For orientation: IC50 means the concentration at which inhibition is half-maximal.

Sequence of Transient receptor potential cation channel subfamily A member 1 (O75762 whole entry): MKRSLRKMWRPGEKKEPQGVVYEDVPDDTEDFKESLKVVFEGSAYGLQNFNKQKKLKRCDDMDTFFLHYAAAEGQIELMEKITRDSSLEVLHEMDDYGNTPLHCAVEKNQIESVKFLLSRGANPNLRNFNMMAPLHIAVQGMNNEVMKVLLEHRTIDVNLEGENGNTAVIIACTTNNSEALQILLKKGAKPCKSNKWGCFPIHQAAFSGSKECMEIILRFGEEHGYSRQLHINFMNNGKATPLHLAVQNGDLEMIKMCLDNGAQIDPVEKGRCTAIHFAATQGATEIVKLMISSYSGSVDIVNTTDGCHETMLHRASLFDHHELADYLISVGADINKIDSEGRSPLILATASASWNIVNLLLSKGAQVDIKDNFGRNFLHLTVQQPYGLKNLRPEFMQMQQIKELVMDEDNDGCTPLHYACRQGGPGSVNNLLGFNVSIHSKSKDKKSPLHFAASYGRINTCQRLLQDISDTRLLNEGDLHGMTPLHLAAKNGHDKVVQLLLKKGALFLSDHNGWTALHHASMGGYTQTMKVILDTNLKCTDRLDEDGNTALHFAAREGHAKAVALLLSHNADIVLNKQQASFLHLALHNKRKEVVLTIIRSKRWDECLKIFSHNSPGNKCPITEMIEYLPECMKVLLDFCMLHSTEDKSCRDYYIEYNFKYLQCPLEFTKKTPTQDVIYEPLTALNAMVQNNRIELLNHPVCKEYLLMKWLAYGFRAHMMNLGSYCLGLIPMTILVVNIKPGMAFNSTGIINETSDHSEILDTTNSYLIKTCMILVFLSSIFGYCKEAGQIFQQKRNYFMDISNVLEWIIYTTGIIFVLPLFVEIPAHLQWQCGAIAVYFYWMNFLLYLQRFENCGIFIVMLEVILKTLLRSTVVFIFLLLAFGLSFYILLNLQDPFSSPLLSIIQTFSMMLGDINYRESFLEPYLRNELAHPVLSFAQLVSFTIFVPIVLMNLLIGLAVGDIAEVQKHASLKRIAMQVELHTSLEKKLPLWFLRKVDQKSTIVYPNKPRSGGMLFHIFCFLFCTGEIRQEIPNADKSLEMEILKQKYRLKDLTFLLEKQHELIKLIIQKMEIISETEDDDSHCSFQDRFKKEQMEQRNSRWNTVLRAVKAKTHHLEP

Consider `Cn1nc(C#N)c2ncn(Cc3nn(CCc4ccc(Cl)cc4)c(=O)o3)c(=O)c21`, for which the IC50 came to 100 nM.
